Results on 6 compounds are retold here after ChEMBL document CHEMBL4145688, “Potent and Orally Bioavailable Inverse Agonists of RORγt Resulting from Structure-Based Design” (J Med Chem, 2018).

Converted amounts (≈) assume the structure as drawn.

Series [1] can be described thus: Oral absorption in Han Wistar rat at 1 mg/kg. The conditions noted are these: in vivo, read-out: Fabs. The format is ADME, organism-based.
The nature of series [2]: Intrinsic clearance in human hepatocytes assessed per million cells. The format is ADME, cell-based, Hepatocyte. The conditions noted are these: read-out: CLH.
A short description of series [3]: Efflux ratio of permeability in human Caco2 cells. It is filed as ADME, cell-based. The conditions noted are these: Caco-2.
The nature of series [4]: Permeability from basolateral to apical side in human Caco2 cells. It is filed as ADME, cell-based. The conditions noted are these: for permeability: Caco-2.
Series [5] in a line: Stability in pH 8 buffer solution at 37 degC measured over 2 days. The format is physicochemical. As to conditions: pH 8, 48 h.
Series [6] can be described thus: Permeability from apical to basolateral side in human Caco2 cells. The format is ADME, cell-based. As to conditions: for permeability: Caco-2.
The nature of series [7]: Stability in pH 5 buffer solution at 37 degC measured over 2 days. It is filed as physicochemical. As to conditions: pH 5, 48 h.
Series [8] has as its target T1, Nuclear receptor ROR-alpha (Homo sapiens, UniProt P35398).
T1 sequence (P35398 whole entry): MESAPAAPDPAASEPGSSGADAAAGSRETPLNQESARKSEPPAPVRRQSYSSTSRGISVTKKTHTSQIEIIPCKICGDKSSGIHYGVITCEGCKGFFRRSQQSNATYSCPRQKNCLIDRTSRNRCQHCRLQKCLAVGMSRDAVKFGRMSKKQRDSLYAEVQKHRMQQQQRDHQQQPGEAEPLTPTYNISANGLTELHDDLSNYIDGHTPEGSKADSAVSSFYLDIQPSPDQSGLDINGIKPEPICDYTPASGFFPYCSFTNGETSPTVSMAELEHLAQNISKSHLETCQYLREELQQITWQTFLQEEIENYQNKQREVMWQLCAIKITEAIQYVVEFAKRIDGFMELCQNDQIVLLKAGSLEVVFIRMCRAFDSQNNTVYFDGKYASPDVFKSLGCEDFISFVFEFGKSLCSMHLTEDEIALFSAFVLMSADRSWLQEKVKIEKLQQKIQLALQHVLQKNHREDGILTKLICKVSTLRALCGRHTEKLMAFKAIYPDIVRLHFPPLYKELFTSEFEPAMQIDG
The series can be described thus: Agonist activity at His6-tcs-human RORalpha LBD assessed as stimulation of biotinylated PGC1alpha (130 to 154 residues) peptide recruitment incubated for 1 hr by HTRF-FRET assay. The conditions noted are these: read-out: IC50 (the source's name). For orientation: In TR-FRET formats the signal depends on donor and acceptor labels being close together.

Series [9] is described as follows: Stability in pH 7.4 buffer solution at 37 degC measured over 2 days. It is filed as physicochemical. As to conditions: pH 7.4, 48 h.
Series [10] can be described thus: Distribution coefficient between 1-octanol and aqueous phosphate buffer, logD of the compound in pH 7.4 buffer. As to conditions: 1-octanol/aqueous phosphate buffer. The format is physicochemical.
A short description of series [11]: Unbound fraction in human plasma by equilibrium dialysis. It is filed as ADME, cell-free.
Series [12] has as its target T2, Nuclear receptor ROR-beta (Homo sapiens, UniProt Q92753).
T2 sequence (Q92753 whole entry): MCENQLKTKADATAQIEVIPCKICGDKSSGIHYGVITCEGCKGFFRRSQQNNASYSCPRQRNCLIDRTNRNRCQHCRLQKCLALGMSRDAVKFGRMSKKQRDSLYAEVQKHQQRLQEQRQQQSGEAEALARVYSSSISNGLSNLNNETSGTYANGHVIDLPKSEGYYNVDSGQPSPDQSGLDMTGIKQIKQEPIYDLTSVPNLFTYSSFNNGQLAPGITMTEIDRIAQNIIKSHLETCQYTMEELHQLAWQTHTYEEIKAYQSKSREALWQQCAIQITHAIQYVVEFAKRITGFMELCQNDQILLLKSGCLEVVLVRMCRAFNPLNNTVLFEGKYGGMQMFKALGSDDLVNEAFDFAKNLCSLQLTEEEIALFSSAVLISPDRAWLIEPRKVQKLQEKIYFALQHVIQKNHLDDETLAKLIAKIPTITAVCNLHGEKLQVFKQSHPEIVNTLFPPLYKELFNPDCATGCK
Description: Displacement of [3H]ATRA from 6H-AVI-GST-TEV-human RORbeta (T221 to K470 residues) pre-incubated for 30 mins before [3H]ATRA addition and measurted ater 18 to 23 hrs by scintillation proximity assay. On the technique in general: Displacement assays read how much labelled ligand stays bound in the presence of the test substance.

Series [13] deals with T1, Nuclear receptor ROR-alpha. The series can be described thus: Inverse agonist activity at His6-tcs-human RORalpha LBD assessed as inhibition of biotinylated PGC1alpha (130 to 154 residues) peptide recruitment incubated for 1 hr by HTRF-FRET assay.
Series [14] can be described thus: Oral bioavailability in Han Wistar rat at 1 mg/kg. It is filed as ADME, organism-based. The conditions noted are these: in vivo.
Series [15] can be described thus: Clearance in Han Wistar rat at 0.5 mg/kg, iv or 1 mg/kg, po. It is filed as ADME, organism-based. As to conditions: in vivo.
For series [16], the target named is T3, Nuclear receptor ROR-gamma (Homo sapiens, UniProt P51449).
T3 sequence (P51449 whole entry): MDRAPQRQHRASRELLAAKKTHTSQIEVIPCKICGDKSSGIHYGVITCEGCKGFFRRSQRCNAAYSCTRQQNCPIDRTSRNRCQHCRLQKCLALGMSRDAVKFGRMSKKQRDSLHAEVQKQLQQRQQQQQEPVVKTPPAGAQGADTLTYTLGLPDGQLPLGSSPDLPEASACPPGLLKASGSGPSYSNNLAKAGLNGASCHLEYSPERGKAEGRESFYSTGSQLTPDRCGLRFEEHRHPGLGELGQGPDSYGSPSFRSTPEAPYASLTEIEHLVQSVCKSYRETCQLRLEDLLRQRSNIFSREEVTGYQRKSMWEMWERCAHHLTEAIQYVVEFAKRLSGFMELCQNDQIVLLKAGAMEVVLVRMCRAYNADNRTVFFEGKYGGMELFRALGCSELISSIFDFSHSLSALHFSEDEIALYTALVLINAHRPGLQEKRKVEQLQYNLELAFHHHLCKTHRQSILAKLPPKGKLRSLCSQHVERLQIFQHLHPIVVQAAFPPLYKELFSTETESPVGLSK
Description: Inverse agonist activity at RORgammat in human TH17 cells assessed as inhibition of IL17 release incubated for 4 days by HTRF assay. The format is cell-based.

Series [17] is described as follows: Volume of distribution at steady state in Han Wistar rat at 0.5 mg/kg, iv or 1 mg/kg, po. The format is ADME, organism-based. As to conditions: in vivo, read-out: Vdss.
Another series is described as follows: physchem. The conditions noted are these: aqueous buffer, pH 7.4.
The target of series [18] is T3, Nuclear receptor ROR-gamma.
Series [19] in a line: Intrinsic clearance in rat hepatocytes assessed per million cells. The format is ADME, cell-based, Hepatocyte. As to conditions: read-out: CLH.
The target in a further series is hERG (KCNH2) (Homo sapiens, UniProt Q12809). Description: Inhibition of human ERG at 11 uM.
hERG (KCNH2), sequence (Q12809 whole entry): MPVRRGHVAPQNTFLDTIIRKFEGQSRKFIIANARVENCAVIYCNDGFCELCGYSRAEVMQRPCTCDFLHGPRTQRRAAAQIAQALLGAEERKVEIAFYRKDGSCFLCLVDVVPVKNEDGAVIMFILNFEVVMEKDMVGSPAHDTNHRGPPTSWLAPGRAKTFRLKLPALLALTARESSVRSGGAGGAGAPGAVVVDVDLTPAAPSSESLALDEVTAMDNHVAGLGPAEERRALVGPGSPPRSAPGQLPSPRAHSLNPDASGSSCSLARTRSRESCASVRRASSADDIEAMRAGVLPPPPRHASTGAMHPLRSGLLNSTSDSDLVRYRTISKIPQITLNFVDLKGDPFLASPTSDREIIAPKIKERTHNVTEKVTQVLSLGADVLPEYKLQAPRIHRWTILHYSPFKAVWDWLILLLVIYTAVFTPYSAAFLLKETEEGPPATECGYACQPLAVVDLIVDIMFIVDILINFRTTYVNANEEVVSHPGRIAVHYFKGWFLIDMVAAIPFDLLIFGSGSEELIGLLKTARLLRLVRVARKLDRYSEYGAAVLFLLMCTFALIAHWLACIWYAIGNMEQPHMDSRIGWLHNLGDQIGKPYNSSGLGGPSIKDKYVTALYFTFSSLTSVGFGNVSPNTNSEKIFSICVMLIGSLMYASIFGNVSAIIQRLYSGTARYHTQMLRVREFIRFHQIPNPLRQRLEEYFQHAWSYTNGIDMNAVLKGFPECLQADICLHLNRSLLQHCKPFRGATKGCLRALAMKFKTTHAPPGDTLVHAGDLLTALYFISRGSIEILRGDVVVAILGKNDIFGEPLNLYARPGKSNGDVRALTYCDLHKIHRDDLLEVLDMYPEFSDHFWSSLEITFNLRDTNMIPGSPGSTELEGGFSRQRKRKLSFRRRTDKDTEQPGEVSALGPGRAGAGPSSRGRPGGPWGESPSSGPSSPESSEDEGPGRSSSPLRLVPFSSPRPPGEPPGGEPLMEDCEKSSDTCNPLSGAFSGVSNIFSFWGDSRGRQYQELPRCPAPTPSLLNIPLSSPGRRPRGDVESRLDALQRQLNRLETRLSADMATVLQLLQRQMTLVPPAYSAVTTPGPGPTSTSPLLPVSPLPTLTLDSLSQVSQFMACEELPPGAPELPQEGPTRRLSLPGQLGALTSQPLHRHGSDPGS
Series [20] can be described thus: Half life in Han Wistar rat at 0.5 mg/kg, iv or 1 mg/kg, po. It is filed as ADME, organism-based. The conditions noted are these: in vivo.
Series [21] concerns the target T3, Nuclear receptor ROR-gamma. The source holds these as a separate data set.
Description: Displacement of [3H]-2-(4-(ethylsulfonyl)phenyl)-N-(4-(2-(methoxymethyl)phenyl)thiophen-2-yl)acetamide from purified N-(HN)6-GST-TCS-human RORgammat (258 to 518 residues) incubated for 16 hrs by scintillation proximity assay
Series [22] in a line: Cytotoxicity in human Th17 cells assessed as effect on cell viability by cell-titer-Glo luminescent cell viability assay relative to control. The format is cell-based. As to conditions: read-out: Efficacy.
A short description of series [23]: Selectivity index, ratio of cytotoxicity in human Th17 cells to IC50 for inverse agonist activity at RORgammat in human TH17 cells assessed as inhibition of IL17 release. It is filed as toxicity, cell-based.
Another series relates to Homo sapiens. The series can be described thus: Reduction in psoriasis-severity index in psoriasis patient dosed orally during phase 2a study. It is filed as functional. Also noted: scale not given: the % may be the effect or the level left.

Description for physchem: Solubility in aqueous buffer at pH 7.4

By efflux ratio is commonly meant a quotient of directional permeabilities that is used to spot active efflux. The logD is lipophilicity at a set pH, counting ionised and neutral species. One may read the fraction unbound as the share of the substance not bound to proteins or other matrix. In general, IC50 refers to the concentration at which inhibition is half-maximal. Usually bioavailability stands for dose-corrected exposure relative to a reference, in per cent. Usually solubility stands for how much of the substance goes into solution per volume. By inhibition is commonly meant how much of the control response was suppressed. Usually half-life stands for the time needed for the level to fall by half in the phase considered. Take `CCS(=O)(=O)c1ccc([C@@H](NC(C)=O)C(=O)Nc2cc(-c3cccnc3OCc3ccc(OC(F)(F)F)cc3)cs2)cc1`: the Fa in [1] is under 1.2%. In addition, the hepatocyte CLint is 8.5 µL/min/1e6 cells in series [2] and 8.9 to 12 µL/min/1e6 cells in series [19]. Besides, in series [3], the efflux ratio was over 1500. In [4] (Caco-2, read-out: permeability), the Papp B→A is 42 ×10⁻⁶ cm/s. In addition, the Stability entry in series [5], in [7] and in series [9] was “Stable” each time. Besides, in series [6] (Caco-2, read-out: permeability), the Papp A→B is under 0.001 ×10⁻⁶ cm/s. In [8], the EC50 is over 33 µM. In [10], this compound registered a logD of 4.7. In [11], this compound came in with a fraction unbound of 0.001. Besides, the IC50 in series [12] is over 10 µM; in series [13], 9.4 µM; in series [16], 11 nM; in series [18], 34 nM; in series [21], 3 nM. For the same compound, the bioavailability in series [14] was under 1%. The clearance in series [15] was found to be 12 mL/min/kg. Also, in series [17], the Vd came out at 2.4 L/kg. In addition, in the series “physchem”, the solubility is 0.3 µM (≈ 0.19 µg/mL). Further, at hERG (KCNH2), at 11 µM the inhibition was 8%. The compound further showed a half-life in [20] of 258 min.
On to `CCS(=O)(=O)c1ccc(C(NC(C)=O)C(=O)Nc2cc(-c3cc(C#N)cnc3OCC(F)(F)F)cs2)cc1` (configuration not stated), for which the EC50 in [8] is over 33 µM. This compound returned a logD in series [10] of 3.7. In series [11], this compound displayed a fraction unbound of 0.002. Also, the IC50 was over 10 µM in series [12]; 0.6 µM in [13]; 49 nM in series [16]; 72 nM in series [18]; 7 nM in series [21]. In addition, the concentration in solution in “physchem” (solubility) came to 3.6 µM (≈ 2.04 µg/mL). Further, in series [19], the hepatocyte CLint was under 1 µL/min/1e6 cells. Moreover, testing at 11 µM against hERG (KCNH2) gave an inhibition of 3%.
In the case of `CCS(=O)(=O)c1ccc(CC(=O)Nc2cc(-c3cccnc3OCc3ccc(OC(F)(F)F)cc3)cs2)cc1`, the Fa in series [1] came to 30%. The figures for the hepatocyte CLint in series [2] and in [19] were 8.6 µL/min/1e6 cells and 40 µL/min/1e6 cells, respectively. Also, the Ratio result in series [3] is on record as “Impermeable”. The permeability entry in [4] and in series [6] was “Impermeable” each time. In addition, the EC50 in [8] was over 33 µM. For the same compound, the fraction unbound in series [11] is under 0.0002. The IC50 in series [12] is over 10 µM; in series [13] it was over 33 µM; in [16] it was 25 nM; in series [18] it was 30 nM; in series [21] it was 7 nM. In addition, the bioavailability in series [14] was 10%. For the same compound, in series [22], the Emax is 40%. Moreover, in [15], the clearance is 46.5 mL/min/kg. The Vd in series [17] came to 3.8 L/kg. The solubility in the series “physchem” stood at 0.7 µM (≈ 0.404 µg/mL). Besides, the selectivity ratio in series [23] amounted to 100. At hERG (KCNH2), this compound showed an inhibition at 11 µM of 0%. Further, in [20], the half-life is 84 min.
Regarding `CCS(=O)(=O)c1ccc(CC(=O)Nc2cc(-c3cc(C#N)cnc3OCC(F)(F)F)cs2)cc1`, the Fa in series [1] came out at 36%. For the same compound, the hepatocyte CLint in series [2] worked out at 5.9 µL/min/1e6 cells; in series [19], 7.5 µL/min/1e6 cells. In addition, in series [3], the Ratio entry is listed as “Impermeable”. Besides, the permeability entry in [4] and in series [6] was “Impermeable” in each case. In addition, the EC50 in series [8] is over 33 µM. In series [11], this compound gave a fraction unbound of 0.0006. Further, the IC50 in [13] was 6.2 µM; in series [16], 65 nM; in series [18] it was 30 nM; in series [21] it was 2 nM. This compound came in with a bioavailability in series [14] of 36%. In addition, the clearance in series [15] was determined as 0.8 mL/min/kg. The Vd in [17] was 0.23 L/kg. In addition, the concentration in solution in the series “physchem” (solubility) was 0.2 µM (≈ 0.102 µg/mL). Moreover, the inhibition at 11 µM against hERG (KCNH2) was determined as 47%. The compound further showed a half-life in [20] of 264 min.
As for `CCS(=O)(=O)c1ccc([C@H](NC(C)=O)C(=O)Nc2cc(-c3cccnc3OCc3ccc(OC(F)(F)F)cc3)cs2)cc1`, the Stability result in series [5], in series [7] and in series [9] was “Stable” throughout. This compound also came in with a logD in [10] of 4.7. Further, the concentration for half-maximal inhibition (IC50) in series [16] is 23 nM; in [18], 3530 nM; in series [21], 270 nM. The hepatocyte CLint in series [19] came to 18 µL/min/1e6 cells.
With `CCS(=O)(=O)c1ccc(CNC(=O)c2cnc3c(c2)CN(C[C@H]2CC[C@H](C(F)(F)F)CC2)[C@H]3C(C)C)nc1`, the Activity with Homo sapiens was determined as 24%.
